Source: US20200190073A1, “SUBSTITUTED SUCCINIMIDE DERIVATIVES AS PESTICIDES” (BASF SE, priority 2017, published 2020)
Where two headings read alike, the source gives them in different places.

Columns and labels:
Type in all cases: in vivo
[1] = test system: Green Soldier Stink Bug (Nezara viridula); assay: B.11 Green soldier stink bug, sprayed soybean pods; conditions: 120 h, 300 ppm, late 3rd instar, after 5 days, read-out: mortality in comparison with untreated controls
Protocol: B.11 Green Soldier Stink Bug (Nezara viridula)
The active compound was dissolved at the desired concentration in a mixture of 1:1 (vol:vol) distilled water:acetone. Surfactant (Kinetic HV) was added at a rate of 0.01% (vol/vol). The test solution was prepared at the day of use. Soybean pods were placed in glass Petri dishes lined with moist filter paper and inoculated with ten late 3rd instar N. viridula. Using a hand atomizer, approximately 2 ml solution is sprayed into each Petri dish. Assay arenas were kept at about 25° C. Percent mortality was recorded after 5 days.

[2] = test system: Rice Green Leafhopper (Nephotettix virescens); assay: B.8 Rice green leafhopper, sprayed rice seedlings; conditions: 300 ppm, adults on sprayed rice seedlings, after 72 hours, read-out: mortality in comparison with untreated controls
Protocol: B.8 Rice Green Leafhopper (Nephotettix virescens)
(§1) Rice seedlings were cleaned and washed 24 hours before spraying. The active compounds were formulated in 1:1 acetone:water (vol:vol), and 0.01% vol/vol surfactant (Kinetic HV) was added. Potted rice seedlings were sprayed with 5-6 ml test solution, air dried, covered with Mylar cages and inoculated with 10 adults. Treated rice plants were kept at about 28-29° C. and relative humidity of about 50-60%. Percent mortality was recorded after 72 hours.

[3] = test system: Neotropical Brown Stink Bug (Euschistus heros); assay: B.12 Neotropical brown stink bug, dipped pole bean; conditions: 120 h, 500 ppm, adults, 5 days, read-out: mortality in comparison with untreated controls
Protocol: B.12 Neotropical Brown Stink Bug (Euschistus heros)
For evaluating control of Euschistus heros through contact the test unit consisted of 100 ml disposable plastic beakers with transparent lids.
The compounds were formulated using a solution containing 50% water and 50% acetone. 50 ml of different concentrations of formulated compounds or mixtures were prepared in a glass petri dish and used for dipping three 6 cm sections of fresh pole bean. Each treatment was replicated eight times.
After application, the pole bean sections were air-dried and 5 adult E. heros placed in each beaker. The E. heros were then allowed to suck on the treated pole bean sections and incubated at 23±1° C., 50±5% RH for 5 days. E. heros mortality was then visually assessed.

[4] = test system: Brown Marmorated Stink Bug (Halyomorpha halys); assay: B.13 Brown marmorated stink bug, spray; conditions: 120 h, 100 ppm, adults, after 5 days, read-out: mortality in comparison with untreated controls
Protocol: B.13 Brown Marmorated Stink Bug (Halyomorpha halys)
(§2) The active compound was dissolved at the desired concentration in a mixture of 1:1 (vol:vol) distilled water:acetone. Surfactant (Kinetic HV) was added at a rate of 0.01% (vol/vol). The test solution was prepared at the day of use.
Row peanuts and soybean seeds were placed into microwavable plastic cups and inoculated with five adult stage H. halys. Using a hand atomizer, approximately 1 ml solution is sprayed into each cup, insects and food present. A water source was provided (cotton wick with water) Each treatment is replicated 4-fold. Assay arenas are kept at about 25° C. Percent mortality was recorded after 5 days.

[5] = test system: Diamond back moth (Plutella xylostella); assay: CE.6 Diamond back moth, contact activity, comparative test; conditions: 0.1 ppm, contact activity, third-instar larvae sprayed, read-out: % mortality in comparison to untreated controls
Protocol: (§3) The tables show % mortality in comparison to untreated controls.
CE.6 Diamond Back Moth (Plutella xylostella)
Ten third-instar larvae are sprayed with 1 ml test solution and introduce to untreated leaves held petri dished lined with moist filter paper. Mortality is recorded 24, 72, and 120 hours after treatment.

[6] = test system: Diamond back moth (Plutella xylostella); assay: B.1 Diamond back moth, cabbage leaf dip; conditions: foliar, 300 ppm, cabbage leaf dip, 3rd instar larvae, 72 hours after treatment, read-out: mortality in comparison with untreated controls
Protocol: B.1 Diamond back moth (Plutella xylostella)
as §2
Leaves of cabbage were dipped in test solution and air-dried. Treated leaves were placed in petri dishes lined with moist filter paper and inoculated with ten 3rd instar larvae. Mortality was recorded 72 hours after treatment. Feeding damages were also recorded using a scale of 0-100%.

[7] = test system: Orchid Thrips (Dichromothrips Corbetti); assay: B.7 Orchid thrips, floral immersion; conditions: 300 ppm; adult thrips; 72 hours after treatment; read-out: mortality in comparison with untreated controls
Protocol: B.7 Orchid Thrips (Dichromothrips Corbetti)
Dichromothrips corbetti adults used for bioassay were obtained from a colony maintained continuously under laboratory conditions. For testing purposes, the test compound is diluted in a 1:1 mixture of acetone:water (vol:vol), plus Kinetic HV at a rate of 0.01% v/v.
Thrips potency of each compound was evaluated by using a floral-immersion technique. All petals of individual, intact orchid flowers were dipped into treatment solution and allowed to dry in Petri dishes. Treated petals were placed into individual re-sealable plastic along with about 20 adult thrips. All test arenas were held under continuous light and a temperature of about 28° C. for duration of the assay. After 3 days, the numbers of live thrips were counted on each petal. The percent mortality was recorded 72 hours after treatment.

[8] = test system: Boll Weevil (Anthonomus grandis); assay: B.5 Boll weevil, insect diet with eggs; conditions: 120 h, 2500 ppm, egg and larval mortality, 5 days, read-out: mortality in comparison with untreated controls
Protocol: B.5 Boll Weevil (Anthonomus grandis)
For evaluating control of boll weevil (Anthonomus grandis) the test unit consisted of 96-well-microtiter plates containing an insect diet and 5-10 A. grandis eggs.
The compounds were formulated using a solution containing 75% v/v water and 25% v/v DMSO. Different concentrations of formulated compounds were sprayed onto the insect diet at 5 μl, using a custom built micro atomizer, at two replications.
After application, microtiter plates were incubated at about 25±1° C. and about 75±5% relative humidity for 5 days. Egg and larval mortality was then visually assessed.

[9] = test system: Vetch Aphid (Megoura viciae); assay: B.3 Vetch aphid, broad bean leaf disks; conditions: foliar, 120 h, 2500 ppm, sprayed leaf disks, 5 days, read-out: mortality in comparison with untreated controls
Protocol: B.3 Vetch Aphid (Megoura viciae)
For evaluating control of vetch aphid (Megoura viciae) through contact or systemic means the test unit consisted of 24-well-microtiter plates containing broad bean leaf disks.
The compounds were formulated using a solution containing 75% v/v water and 25% v/v DMSO. Different concentrations of formulated compounds were sprayed onto the leaf disks at 2.5 μl, using a custom built micro atomizer, at two replications.
After application, the leaf disks were air-dried and 5-8 adult aphids placed on the leaf disks inside the microtiter plate wells. The aphids were then allowed to suck on the treated leaf disks and incubated at about 23±1° C. and about 50±5% relative humidity for 5 days. Aphid mortality and fecundity was then visually assessed.

[10] = test system: Green Peach Aphid (Myzus persicae); assay: B.2 Green peach aphid, artificial diet, systemic; conditions: 72 h, 2500 ppm, adult aphids on treated diet, 3 days, read-out: mortality in comparison with untreated controls
Description: B.2 Green Peach Aphid (Myzus persicae)
For evaluating control of green peach aphid (Myzus persicae) through systemic means the test unit consisted of 96-well-microtiter plates containing liquid artificial diet under an artificial mem brane.
The compounds were formulated using a solution containing 75% v/v water and 25% v/v DMSO. Different concentrations of formulated compounds were pipetted into the aphid diet, using a custom built pipetter, at two replications.
After application, 5-8 adult aphids were placed on the artificial membrane inside the microtiter plate wells. The aphids were then allowed to suck on the treated aphid diet and incubated at about 23±1° C. and about 50±5% relative humidity for 3 days. Aphid mortality and fecundity was then visually assessed.

[11] = test system: Tobacco Budworm (Heliothis virescens); assay: B.4 Tobacco budworm, insect diet with eggs; conditions: 120 h, 2500 ppm, egg and larval mortality, 5 days, read-out: mortality in comparison with untreated controls
Protocol: B.4 Tobacco Budworm (Heliothis virescens)
For evaluating control of tobacco budworm (Heliothis virescens) the test unit consisted of 96-well-microtiter plates containing an insect diet and 15-25 H. virescens eggs.
The compounds were formulated using a solution containing 75% v/v water and 25% v/v DMSO. Different concentrations of formulated compounds were sprayed onto the insect diet at 10 μl, using a custom built micro atomizer, at two replications.
After application, microtiter plates were incubated at about 28±1° C. and about 80±5% relative humidity for 5 days. Egg and larval mortality was then visually assessed.

[12] = test system: Red Spider Mite (Tetranychus kanzawai); assay: B.9 Red spider mite, sprayed cowpea beans; conditions: 300 ppm, 72 hours after treatment, read-out: mortality in comparison with untreated controls
Protocol: B.9 Red Spider Mite (Tetranychus kanzawai)
The active compound was dissolved at the desired concentration in a mixture of 1:1 (vol:vol) distilled water:acetone. Add surfactant (Kinetic HV) was added at a rate of 0.01% (vol/vol).The test solution was prepared at the day of use.
Potted cowpea beans of 4-5 days of age were cleaned with tap water and sprayed with 1-2 ml of the test solution using air driven hand atomizer. The treated plants were allowed to air dry and afterwards inoculated with 30 or more mites by clipping a cassava leaf section from rearing population. Treated plants were placed inside a holding room at about 25-27° C. and about 50-60% relative humidity. Percent mortality was assessed 72 hours after treatment.

[13] = test system: Rice Brown Plant Hopper (Nilaparvata lugens); assay: CE.2 Rice brown plant hopper, comparative test; conditions: read-out: % mortality in comparison to untreated controls
Protocol: as §3
CE.2 Rice Brown Plant Hopper (Nilaparvata lugens)
as §1, with “50:50” for “1:1”, “(vol:vol)” for “(vol:vol),”, “0.1%” for “0.01%”, “(EL 620)” for “(Kinetic HV)”, “5” for “5-6”, “placed in” for “covered with Mylar”

[14] = test system: Silverleaf Whitefly (Bemisia argentifolii); assay: CE.4 Silverleaf whitefly, comparative test; conditions: 72 h, read-out: % mortality in comparison to untreated controls
Protocol: as §3
CE.4 Silverleaf Whitefly (Bemisia argentifolii)
The active compounds were formulated in 50:50 acetone:water (vol:vol) and 100 ppm Kinetica™ surfactant.
Selected cotton plants were grown to the cotyledon state (one plant per pot). The cotyledons were dipped into the test solution to provide complete coverage of the foliage and placed in a well-vented area to dry. Each pot with treated seedling was placed in a plastic cup and 10 to 12 whitefly adults (approximately 3-5 day old) were introduced. The insects were collected using an aspirator and a Tygon® tubing connected to a barrier pipette tip. The tip, containing the collected insects, was then gently inserted into the soil containing the treated plant, allowing insects to crawl out of the tip to reach the foliage for feeding. The cups were covered with a reusable screened lid. Test plants were maintained in the holding room at about 25° C. and about 20-40% relative humidity for 3 days avoiding direct exposure to the fluorescent light (24 hour photoperiod) to prevent trapping of heat inside the cup. Mortality was assessed 3 days after treatment of the plants.

[15] = test system: Orchid Thrips (Dichromothrips Corbetti); assay: CE.3 Orchid thrips, comparative test; conditions: 96 h, read-out: % mortality in comparison to untreated controls
Protocol: as §3
CE.3 Orchid Thrips (Dichromothrips Corbetti)
Dichromothrips corbetti adults used for bioassay were obtained from a colony maintained continuously under laboratory conditions. For testing purposes, the test compound was diluted to a concentration of 300 ppm (wt compound: vol diluent) in a 1:1 mixture of acetone:water (vol:vol), plus 0.01% vol/vol Kinetic® surfactant.
Thrips potency of each compound was evaluated by using a floral-immersion technique. Plastic petri dishes were used as test arenas. All petals of individual, intact orchid flowers were dipped into treatment solution and allowed to dry. Treated flowers were placed into individual petri dishes along with 10-15 adult thrips. The petri dishes were then covered with lids. All test arenas were held under continuous light and a temperature of about 280C for duration of the assay. After 4 days, the numbers of live thrips were counted on each flower, and along inner walls of each petri dish. The level of thrips mortality was extrapolated from pre-treatment thrips numbers.

[16] = test system: Cowpea Aphid (Aphis Craccivora); assay: CE.1 Cowpea aphid, comparative test; conditions: read-out: % mortality in comparison to untreated controls
Protocol: as §3
CE.1 Cowpea Aphid (Aphis Craccivora)
Potted cowpea plants colonized with approximately 100-150 aphids of various stages were sprayed after the pest population has been recorded. Population reduction was assessed after 24, 72, and 120 hours.

[17] = test system: Rice Green Leafhopper (Nephotettix virescens); assay: CE.5 Rice green leafhopper, comparative test; conditions: 3 ppm, after 72 hours, read-out: % mortality in comparison to untreated controls
Protocol: as §3
CE.5 Rice Green Leafhopper (Nephotettix virescens)
as §1, with “50:50” for “1:1”, “0.1%” for “0.01%”, “(EL 620)” for “(Kinetic HV)”, “5” for “5-6”, “placed in” for “covered with Mylar”

`CN1C(=O)CC(NC(=O)c2ccc(C3=NOC(c4ccc(F)c(Cl)c4)(C(F)(F)F)C3)c3c2CCC3)C1=O` (stereo not drawn) [Compound I-1-11] was tested, and the mortality at 300 ppm [1] was > 75%, the mortality at 300 ppm [2] was > 75% and the mortality at 500 ppm [3] was > 75%. The mortality at 100 ppm [4] was > 75%, the mortality at 0.1 ppm [5] was 75% and the mortality at 300 ppm [6] was > 75%. The mortality at 300 ppm [7] was > 75%, the mortality at 2500 ppm [8] was > 75% and the mortality at 2500 ppm [9] was > 75%. For the same compound, the mortality at 2500 ppm [10] was > 75%, the mortality at 2500 ppm [11] was > 75% and the mortality at 300 ppm [12] was > 75%.

In the case of `Cc1cc(C2=NOC(c3cc(Cl)cc(Cl)c3)(C(F)(F)F)C2)ccc1C(=O)NC1CCN(CC(F)(F)F)C1=O` (stereo not drawn) [No. 5-405 of US 20070066617, reference compound], the mortality at 10 ppm ([13]; 72 h) is reported as 0%, the mortality at 10 ppm [14] is reported as 25% and the mortality at 10 ppm [15] is reported as 0%. It also gave a mortality at 10 ppm [16] of 25%.

Work on `CCN1CCC(NC(=O)c2ccc(C3=CCC(c4ccc(F)c(Cl)c4)(C(F)(F)F)C3)cc2Cl)C1=O` (stereo not drawn) [No. I-9 of WO 2017/016883] yielded a mortality at 3 ppm [17] of 0%, a mortality at 10 ppm ([13]; 10 ppm, after 72 hours) of 25% and a mortality at 10 ppm ([14]; 10 ppm, 3 days after treatment) of 25%. The mortality at 10 ppm ([15]; 10 ppm, after 4 days) was 0% and the mortality at 10 ppm ([16]; 10 ppm, sprayed cowpea plants) was 25%.
